Experimental data from patent publication US9839214B2, “Solavetivone and 5-epi-beta-vertivone as pest repellants and pesticides” (EVOLVA, INC., priority 2012, dated 2017).

Assays:
[1] = test system: adult bed bugs (Cimex lectularius); experiment: Bed bug repellency on half-treated filter paper in Petri dish chambers, Day 1; type: in vivo; conditions: for Repellancy / Repellancy, Averages: 0.5% active and 0.1% BHT in acetone on filter paper; for Repellancy / Repellancy, Averages / # bed bugs on the treated filter paper / # bed bugs on the treated filter paper, Averages: Day 1; for Repellancy: 50 bed bugs; for Repellancy, Averages / # bed bugs on the treated filter paper, Averages: average of 0.5-24 hr readings; for # bed bugs on the treated filter paper / # bed bugs on the treated filter paper, Averages: 0.5% active and 0.1% BHT in acetone, of 50 bed bugs; for time for which bed bugs are repelled following treatment: 0.5% active, Day 1 test
Protocol: A formulation, containing 0.5% solavetivone and 0.1% butylated hydroxytoluene (BHT) in acetone was tested for efficacy for repelling adult bed bugs (Cimex lectularius). Treatment chambers were created by cutting a circular hole in the bottom of 9-cm Petri dishes. A fine mesh nylon cloth was then glued to Petri dishes, covering the holes. The chambers were formed using the inverted Petri dishes with the screened bottoms serving as the tops and the lids forming the base of the chambers. The lids were secured with rubber bands. Five semi-circular pieces of filter paper, with a diameter of 9 cm were arranged so that they were evenly spaced on a sheet of aluminum foil. One (1) mL of 0.5% solavetivone solution, stored at ambient temperature and humidity, was applied to the filter papers. Five untreated semi-circular pieces were marked with the letter “c”, for control, on both sides in pencil or solvent resistant ink. One solavetivone-treated filter paper and one untreated filter paper were placed with the flat sides against each other, creating a full circle, in the lids of five 9-cm Petri dishes, serving as the treatment chambers described above, such that the entire surface of the lid was covered. Prior to addition of the bed bugs, the filter papers were confirmed to be completely dry and free of any residual acetone odor. Ten (10) bed bugs, having received a blood meal no more than 7 days before, were placed onto the untreated piece of paper and covered with the ventilated base of the Petri dish. The containers of each replicate were then kept at ambient laboratory temperature and humidity for the duration of the study. The distribution of the bed bugs on the treated and untreated filter papers was recorded at 0.5, 1, 1.5, 2, and 24 hours after being placed in the containers. Observations were made in darkness with the aid of a red lens flashlight. Gloves and a dust mask were worn by the observer to reduce detection of the bed bugs and to minimize disturbance caused by the observer. Five additional treatment chambers were created as described above, except the treated filter paper was soaked with acetone with 0.1% BHT (control treatment), instead of the 0.5% solavetivone solution. Bed bug distribution in the control chambers were recorded as described for the treatment condition. The solavetivone treatment repellency was calculated from the following equation: R=[(C−T)/C]*100, where R is the % repellency, C is the fraction of bed bugs on the acetone-treated filter papers, and T is the fraction of bed bugs on the solavetivone-treated filter papers. […] A formulation, containing 0.5% 5-epi-β-vetivone and 0.1% butylated hydroxytoluene (BHT) in acetone was tested for efficacy for repelling adult bed bugs (Cimex lectularius). Treatment chambers were prepared as described in Example 1A. Five semi-circular pieces of filter paper, with a diameter of 9 cm were arranged so that they were evenly spaced on a sheet of aluminum foil. One (1) mL of 0.5% 5-epi-β-vetivone solution, stored at ambient temperature and humidity, was applied to the filter papers. Five untreated semi-circular pieces were marked with the letter “c”, for control, on both sides in pencil or solvent resistant ink. One 5-epi-β-vetivone-treated filter paper and one untreated filter paper were placed with the flat sides against each other, creating a full circle, in the lids of five 9-cm Petri dishes, serving as the treatment chambers described above, such that the entire surface of the lid was covered. Prior to addition of the bed bugs, the filter papers were confirmed to be completely dry and free of any residual acetone odor. Ten (10) bed bugs, having received a blood meal no more than 7 days before, were placed onto the untreated piece of paper and covered with the ventilated base of the Petri dish. The containers of each replicate were then kept at ambient laboratory temperature and humidity for the duration of the study. […]

[2] = test system: bed bug (Cimex lectularius); experiment: Extended bed bug repellency, same treated chambers with new bed bugs, Day 2; type: in vivo; conditions: for Repellancy / Repellancy, Averages: 0.5% active and 0.1% BHT in acetone on filter paper; for Repellancy / # bed bugs on the treated filter paper: Day 2, new bed bugs; for Repellancy: 50 bed bugs; for Repellancy, Averages / # bed bugs on the treated filter paper, Averages / time for which bed bugs are repelled following treatment: Day 2; for Repellancy, Averages / # bed bugs on the treated filter paper, Averages: average of 0.5-24 hr readings; for # bed bugs on the treated filter paper / # bed bugs on the treated filter paper, Averages: 0.5% active and 0.1% BHT in acetone, of 50 bed bugs; for time for which bed bugs are repelled following treatment: 0.5% active, extended test
Protocol: The bed bug (Cimex lectularius) treatment chambers described in part A above were used to test the duration of 0.5% solavetivone in acetone repellent effects. At the end of 24 hours, the old bed bugs were removed from each Petri dish and 10 new bed bugs were added to each dish, for a total of 50 bed bugs. The distribution of the new set of bed bugs was recorded at 0.5, 1, 1.5, 2, and 24 hours after their introduction to the chamber (Day 2). Observations were made and repellency was calculated as described in Section A above. […] The bed bug (Cimex lectularius) treatment chambers described in part A above were used to test the duration of 0.5% 5-epi-β-vetivone in acetone repellent effects. At the end of 24 hours, the old bed bugs were removed from each Petri dish and 10 new bed bugs were added to each dish, for a total of 50 bed bugs. The distribution of the new set of bed bugs was recorded at 0.5, 1, 1.5, 2, and 24 hours after their introduction to the chamber (Day 2). Observations were made and repellency was calculated as described in Section A above.

## C=C(C)[C@@H]1CC[C@@]2(C1)C(C)=CC(=O)C[C@H]2C [Solavetivone, solavetivone]
[1]; 0.5 hr
  Repellancy: 92.0%
  # bed bugs on the treated filter paper: 4
[1]; 1.0 hr
  Repellancy: 90.0%
  # bed bugs on the treated filter paper: 5
[1]; 1.5 hr
  Repellancy: 92.0%
  # bed bugs on the treated filter paper: 4
[1]; 2.0 hr
  Repellancy: 96.0%
  # bed bugs on the treated filter paper: 2
[1]; 24.0 hr
  Repellancy: 98.0%
  # bed bugs on the treated filter paper: 1
[1]
  Repellancy, Averages: 93.6%
  # bed bugs on the treated filter paper, Averages: 3.2
  time for which bed bugs are repelled following treatment: at least 24 hours
[2]; 0.5 hr after introduction
  Repellancy: 96.0%
[2]; 1.0 hr after introduction
  Repellancy: 96.0%
[2]; 1.5 hr after introduction
  Repellancy: 88.0%
[2]; 2.0 hr after introduction
  Repellancy: 90.0%
[2]; 24.0 hr after introduction
  Repellancy: 90.0%
[2]
  Repellancy, Averages: 92.0%
  # bed bugs on the treated filter paper, Averages: 4.0
  time for which bed bugs are repelled following treatment: at least 48 hours
[2]; 0.5 hr
  # bed bugs on the treated filter paper: 2
[2]; 1.0 hr
  # bed bugs on the treated filter paper: 2
[2]; 1.5 hr
  # bed bugs on the treated filter paper: 6
[2]; 2.0 hr
  # bed bugs on the treated filter paper: 5
[2]; 24.0 hr
  # bed bugs on the treated filter paper: 5

## CC1=CC(=O)C[C@@H](C)[C@@]12CCC(=C(C)C)C2 [5-epi-β-vetivone]
[1]; 0.5 hr
  Repellancy: 88.0%
  # bed bugs on the treated filter paper: 6
[1]; 1.0 hr
  Repellancy: 94.0%
  # bed bugs on the treated filter paper: 3
[1]; 1.5 hr
  Repellancy: 98.0%
  # bed bugs on the treated filter paper: 1
[1]; 2.0 hr
  Repellancy: 96.0%
  # bed bugs on the treated filter paper: 2
[1]; 24.0 hr
  Repellancy: 100.0%
  # bed bugs on the treated filter paper: 0
[1]
  Repellancy, Averages: 95.2%
  # bed bugs on the treated filter paper, Averages: 2.4
  time for which bed bugs are repelled following treatment: at least 24 hours
[2]; 0.5 hr after introduction
  Repellancy: 92.0%
[2]; 1.0 hr after introduction
  Repellancy: 94.0%
[2]; 1.5 hr after introduction
  Repellancy: 94.0%
[2]; 2.0 hr after introduction
  Repellancy: 92.0%
[2]; 24.0 hr after introduction
  Repellancy: 96.0%
[2]
  Repellancy, Averages: 93.6%
  # bed bugs on the treated filter paper, Averages: 3.2
  time for which bed bugs are repelled following treatment: at least 48 hours
[2]; 0.5 hr
  # bed bugs on the treated filter paper: 4
[2]; 1.0 hr
  # bed bugs on the treated filter paper: 3
[2]; 1.5 hr
  # bed bugs on the treated filter paper: 3
[2]; 2.0 hr
  # bed bugs on the treated filter paper: 4
[2]; 24.0 hr
  # bed bugs on the treated filter paper: 2
